{
  "source": "patent US20070098761A1",
  "about": "“Processed fat composition for preventing/ameliorating lifestyle-related diseases” (priority 2003, published 2007)",
  "test": "Shelf stability test (accelerating test at 80° C.)",
  "format": "physicochemical",
  "experimental": "A shelf stability test of glabrene, glabridin, glabrol and 4′-O-methylglabridin in the above MCT solution was carried out as an accelerating test at 80° C. The MCT solution was kept at 80° C. in a water bath, and the contents of glabrene, glabridin, glabrol and 4′-O-methylglabridin were determined after storage for 1, 3 and 5 hours respectively. The shelf stability was expressed in terms of the ratio of the content after storage to the content before storage, assuming that the content of each compound before storage was 100%.\nA shelf stability test of the hydrophobic licorice extract in Comparative Example 1 was carried out in an analogous manner.\nA shelf stability test of the ethanol solution in Comparative Example 2 was carried out in an analogous manner.",
  "note": "Where two headings read alike, the source gives them in different places.",
  "data": [
    {"smiles": "COc1ccc([C@@H]2COc3c(ccc4c3C=CC(C)(C)O4)C2)c(O)c1", "note": "[Compound 4, 4′-O-methylglabridin]", "values": [
      {"measurement": "Shelf stability (ratio of content after storage to content before storage)", "value": 100, "unit": "%"},
      {"measurement": "Stability during storage (in words)", "value": "stable"}
    ]},
    {"smiles": "CC1(C)C=Cc2c(ccc3c2OC[C@@H](c2ccc(O)cc2O)C3)O1", "note": "[Compound 2, glabridin]", "values": [
      {"measurement": "Shelf stability (ratio of content after storage to content before storage)", "setting": "Ethanol solution (Comparative Example 2), 80° C., after 1 hour", "value": 96, "unit": "%"},
      {"measurement": "Shelf stability (ratio of content after storage to content before storage)", "setting": "Ethanol solution (Comparative Example 2), 80° C., after 3 hour", "value": 94, "unit": "%"},
      {"measurement": "Shelf stability (ratio of content after storage to content before storage)", "setting": "Ethanol solution (Comparative Example 2), 80° C., after 5 hour", "value": 93, "unit": "%"},
      {"measurement": "Shelf stability (ratio of content after storage to content before storage)", "setting": "Ethanol solution (Comparative Example 2), 80° C., at the time of start (set to 100%)", "value": 100, "unit": "%"},
      {"measurement": "Shelf stability (ratio of content after storage to content before storage)", "setting": "Hydrophobic licorice extract (Comparative Example 1), 80° C., after 1 hour", "value": 91, "unit": "%"},
      {"measurement": "Shelf stability (ratio of content after storage to content before storage)", "setting": "Hydrophobic licorice extract (Comparative Example 1), 80° C., after 3 hours", "value": 88, "unit": "%"},
      {"measurement": "Shelf stability (ratio of content after storage to content before storage)", "setting": "Hydrophobic licorice extract (Comparative Example 1), 80° C., after 5 hours", "value": 86, "unit": "%"},
      {"measurement": "Shelf stability (ratio of content after storage to content before storage)", "setting": "Hydrophobic licorice extract (Comparative Example 1), 80° C., at the time of start (set to 100%)", "value": 100, "unit": "%"},
      {"measurement": "Shelf stability (ratio of content after storage to content before storage)", "setting": "MCT solution (Example 1), 80° C., after 1 hour", "value": 100, "unit": "%"},
      {"measurement": "Shelf stability (ratio of content after storage to content before storage)", "setting": "MCT solution (Example 1), 80° C., after 3 hours", "value": 101, "unit": "%"},
      {"measurement": "Shelf stability (ratio of content after storage to content before storage)", "setting": "MCT solution (Example 1), 80° C., after 5 hours", "value": 97, "unit": "%"},
      {"measurement": "Shelf stability (ratio of content after storage to content before storage)", "setting": "MCT solution (Example 1), 80° C., at the time of start (set to 100%)", "value": 100, "unit": "%"},
      {"measurement": "Stability during storage (in words)", "setting": "in the ethanol solution, 80° C.", "value": "unstable"},
      {"measurement": "Stability during storage (in words)", "setting": "in the hydrophobic licorice extract, 80° C.", "value": "unstable"}
    ]},
    {"smiles": "CC1(C)C=Cc2c(O)ccc(C3=Cc4ccc(O)cc4OC3)c2O1", "note": "[Compound 1, glabrene]", "values": [
      {"measurement": "Shelf stability (ratio of content after storage to content before storage)", "setting": "0 h", "value": 100, "unit": "%"}
    ]},
    {"smiles": "CC(C)=CCc1cc([C@@H]2CC(=O)c3ccc(O)c(CC=C(C)C)c3O2)ccc1O", "note": "[Compound 3, glabrol]", "values": [
      {"measurement": "Stability during storage (in words)", "value": "stable"},
      {"measurement": "Shelf stability (ratio of content after storage to content before storage)", "setting": "0 h", "value": 100, "unit": "%"}
    ]}
  ]
}
